PMC7825302, “Tetraoctylammonium, a Long Chain Quaternary Ammonium Blocker, Promotes a Noncollapsed, Resting-Like Inactivated State in KcsA” (International Journal of Molecular Sciences, 2021)

Tests used:
[1] = target: T1, W67 KcsA (Streptomyces lividans, UniProt P0A334, W113F/W26F/W68F/W87F); assay: thermal denaturation titration with fitted KD; pH […] (pH […]); effect supported by homo-FRET; format: binding
T1 construct: quadruple mutant KcsA with a single Trp (W67) per subunit, homotetramer, His-tag purified from E. coli, in DDM detergent

[2] = target: T2, KcsA (Streptomyces lividans, UniProt P0A334); assay: thermal denaturation (intrinsic fluorescence) titration with fitted KD; pH […] (pH […]); format: binding
T2 construct: wild-type (WT) KcsA, homotetramer, His-tag purified from E. coli, in DDM detergent
T2 sequence (P0A334 1-160): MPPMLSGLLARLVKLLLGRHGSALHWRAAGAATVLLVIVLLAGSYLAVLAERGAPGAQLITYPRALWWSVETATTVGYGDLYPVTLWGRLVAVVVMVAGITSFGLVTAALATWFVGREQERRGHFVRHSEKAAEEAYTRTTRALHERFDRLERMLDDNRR

[3] = target: T3, wild-type KcsA potassium channel (Streptomyces lividans), P0A334; assay: SDS-PAGE; 12% SDS-PAGE of the detergent-solubilised (DDM) channel at room temperature, 10 mM Na+, pH 7.0 and pH 4.0, without or with 1 or 100 µM TOA+; conditions: remark: other sources report otherwise
T3 chain: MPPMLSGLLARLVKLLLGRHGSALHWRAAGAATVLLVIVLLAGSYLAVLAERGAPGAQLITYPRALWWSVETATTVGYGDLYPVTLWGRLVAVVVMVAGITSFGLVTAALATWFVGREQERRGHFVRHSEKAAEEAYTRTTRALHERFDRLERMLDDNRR

[4] = target: the molecule itself; assay: FRET or BRET; homo-FRET among the W67 residues of the subunits, from steady-state and time-resolved fluorescence anisotropy; 5 µM protein in 5 mM DDM, pH 7.0 or pH 4.0, K+ titrated, with or without 100 µM TOA+

Molecule: CCCCCCCC[N+](CCCCCCCC)(CCCCCCCC)CCCCCCCC [tetraoctylammonium]
- Kd [1]: 107 nM
- Kd [2]: 180 nM

B1: wild-type KcsA potassium channel, P0A334 1-160 (natural protein)
chain: MPPMLSGLLARLVKLLLGRHGSALHWRAAGAATVLLVIVLLAGSYLAVLAERGAPGAQLITYPRALWWSVETATTVGYGDLYPVTLWGRLVAVVVMVAGITSFGLVTAALATWFVGREQERRGHFVRHSEKAAEEAYTRTTRALHERFDRLERMLDDNRR
- stoichiometry N [3]: 4

B2: W67 KcsA (quadruple mutant W26, 68, 87, 113F KcsA with a single tryptophan, W67, per subunit) (natural protein, Streptomyces lividans, UniProt P0A334 1-160, looked up)
chain: MPPMLSGLLARLVKLLLGRHGSALHFRAAGAATVLLVIVLLAGSYLAVLAERGAPGAQLITYPRALWFSVETATTVGYGDLYPVTLFGRLVAVVVMVAGITSFGLVTAALATFFVGREQERRGHFVRHSEKAAEEAYTRTTRALHERFDRLERMLDDNRR
notes: KcsA, prokaryotic K+ channel from Streptomyces lividans, native Trp residues 26, 68, 87 and 113 mutated to Phe; also called KcsA W26, 68, 87, 113F; W67 mutant channel
- binding result [4]: binds
